Laboratory results published in patent publication US20090068290A1, “BIFEPRUNOX DOSES FOR TREATING SCHIZOPHRENIA” (priority 2006, published 2009).

Key:
Format in all cases: in vivo, human
[1] = test system: adult subjects with schizophrenia; assay: CGI Severity of Illness score, Clinical Study Two; settings: for Change from Baseline in CGI Severity of Illness Score, Mean (SD) / Change from Baseline in CGI Severity of Illness Score, Median / Change from Baseline in CGI Severity of Illness Score, Trt Effect (bifeprunox—placebo) / mean change (SD) from Baseline to Endpoint in CGI severity of illness score: LOCF; for Change from Baseline in CGI Severity of Illness Score, Mean (SD) / Change from Baseline in CGI Severity of Illness Score, Median / Change from Baseline in CGI Severity of Illness Score, Trt Effect (bifeprunox—placebo): ITT population; for CGI severity of illness score, treatment effect (bifeprunox—placebo): Endpoint LOCF; for mean change (SD) from Baseline to Endpoint in CGI severity of illness score: ITT
Method: Rating scale assessments were performed weekly, except for week 5, to measure the change from baseline to endpoint of the PANSS total score. Other assessments included: PANSS positive symptom subscale score, PANSS negative symptom subscale score, PANSS general pschopathology subscale score, BPRS total score, BPRS psychosis score, the CGI-S score, the CGI-I score, responder rates based on the PANSS total score, and the Calgary Depression Scale for Schizophrenia (CDSS). […]
Subjects who completed this study had the option to continue in the long-term. […] Risperidone-treated subjects were titrated from 2 mg to 6 mg daily over a three-day period and were subsequently maintained at 6 mg/day for the remainder of the treatment period. […] Blood samples were also obtained at Screening/Baseline, Week 3, and Week 6 for clinical laboratory assessments.

[2] = test system: adult subjects with schizophrenia; assay: PANSS negative symptom subscale score, Clinical Study Three; settings: for Change from Baseline in PANSS Negative Symptom Subscale Score, Mean (SD) / Change from Baseline in PANSS Negative Symptom Subscale Score, Median / Trt Effect (bifeprunox - placebo), PANSS Negative Symptom Subscale Score / mean change (SD) from Baseline to Endpoint in PANSS Negative Symptom subscale score: LOCF; for Change from Baseline in PANSS Negative Symptom Subscale Score, Mean (SD) / Change from Baseline in PANSS Negative Symptom Subscale Score, Median / Trt Effect (bifeprunox - placebo), PANSS Negative Symptom Subscale Score: ITT population; for Trt Effect (bifeprunox - placebo), PANSS Negative Symptom Subscale Score: ANCOVA; for PANSS Negative Symptom subscale score, treatment effect (bifeprunox—placebo): Endpoint LOCF; for mean change (SD) from Baseline to Endpoint in PANSS Negative Symptom subscale score: ITT
From the text: SECONDARY OBJECTIVES To assess the efficacy of bifeprunox in treating schizophrenia using the Positive Symptom sub-scale score of the PANSS, the Negative Symptom sub-scale score of the PANSS, the General Psychopathology sub-scale of the PANSS, Brief Psychiatric Rating Scale (BPRS) total score derived from the PANSS, BPRS psychosis score derived from the PANSS, the Clinical Global Impression Severity of Illness score (CGI-S), the Clinical Global Impression Improvement score (CGI-I), CGI-I responder rate, PANSS responder rate based on the PANSS total score, Calgary Depression Scale for Schizophrenia (CDSS), and Subject Satisfaction rating.
There were four treatment arms in this study, approximately 144 subjects per arm. […] After completing the Single-Blind Placebo Lead-in Period of at least three days, bifeprunox-treated subjects were titrated from 0.25 mg up to 20 mg/day or 30 mg/day according to a standardized titration scheme over a seven- or eight-day period, respectively. When the assigned dose was reached, subjects were maintained at that dose for the remainder of the six week treatment period. […] Subjects were hospitalized (if not already inpatients) after eligibility for study entry was verified, starting from the Screening Visit until at least 10 days after Baseline. Subjects could be hospitalized longer than 10 days if considered medically necessary by the Investigator. Rating scale assessments for efficacy and abnormal movement disorders were done weekly except for Week 5. […] Subject satisfaction with study medication was assessed at Week 6.

[3] = test system: adult subjects with schizophrenia; assay: BPRS total score, Clinical Study One; settings: Bifeprunox 5 mg, ITT population
Method: There were five treatment groups in this study. […] Study medication was administered once daily. After Baseline measurements were performed, the titration phase was begun. Bifeprunox treated subjects were titrated up to 5 mg, 10 mg or 20 mg according to a standardized titration schedule (Day 1: 0.125 mg, Day 2: 0.25 mg, Day 3: 0.5 mg, Day 4: 1.0 mg, Day 5: 2.0 mg, Day 6: 5.0 mg, Day 7: 10.0 mg, Day 8: 20 mg). When the assigned dose was reached, subjects were maintained at that dose for the remainder of the six-week treatment period.
The change in the Positive and Negative Symptom Scale (PANSS) total score, from baseline to endpoint, was the primary outcome measure. Secondary efficacy measures included: PANSS positive, PANSS negative, PANSS general psychopathology (GPP) score, PANSS-derived Brief Psychiatric Rating Scale (BPRS) score, Clinical Global Impressions-Severity of Illness (CGI-S), CGI-Improvement (CGI-I) scores, and responder rates. Safety and tolerability evaluations included extrapyramidal symptoms (EPS), weight gain, lipid profile, and serum prolactin.

[4] = Bifeprunox 30 mg, Week 6/Endpoint
[5] = Bifeprunox 40 mg, Week 6/Endpoint
[6] = Bifeprunox 20 mg, Week 6/Endpoint

With `O=c1[nH]c2cccc(N3CCN(Cc4cccc(-c5ccccc5)c4)CC3)c2o1` [Bifeprunox, 7-[4-([1,1′-biphenyl]-3-ylmethyl)-1-piperazinyl]-2(3H)-benzoxazolone] the “Change from Baseline in CGI Severity of Illness Score, Mean (SD)” value (from here on “Change from Baseline in CGI Severity … (SD)”) ([1]; Bifeprunox 30 mg, Week 1) was −0.33 (0.77), the “Change from Baseline in CGI Severity of Illness Score, Median” value (“Change … of Illness Score, Median” below) ([1]; Bifeprunox 30 mg, Week 1) was 0.0 and the “Change from Baseline in CGI Severity … (SD)” value ([1]; Bifeprunox 30 mg, Week 2) was −0.58 (0.97). The “Change … of Illness Score, Median” value ([1]; Bifeprunox 30 mg, Week 2) was 0.0, the “Change from Baseline in CGI Severity … (SD)” value ([1]; Bifeprunox 30 mg, Week 3) was −0.67 (1.08) and the “Change … of Illness Score, Median” value ([1]; Bifeprunox 30 mg, Week 3) was 0.0. The “Change from Baseline in CGI Severity … (SD)” value ([1]; Bifeprunox 30 mg, Week 4) was −0.68 (1.11), the “Change … of Illness Score, Median” value ([1]; Bifeprunox 30 mg, Week 4) was 0.0 and the “Change from Baseline in CGI Severity … (SD)” value [1, 4] was −0.69 (1.19). The “Change … of Illness Score, Median” value [1, 4] was 0.0, the “Change from Baseline in CGI Severity of Illness Score, Trt Effect (bifeprunox—placebo)” value [1, 4] was −0.28 and the “Change from Baseline in CGI Severity … (SD)” value ([1]; Bifeprunox 40 mg, Week 1) was −0.28 (0.65). For the same molecule, the “Change … of Illness Score, Median” value ([1]; Bifeprunox 40 mg, Week 1) was 0.0, the “Change from Baseline in CGI Severity … (SD)” value ([1]; Bifeprunox 40 mg, Week 2) was −0.43 (0.90) and the “Change … of Illness Score, Median” value ([1]; Bifeprunox 40 mg, Week 2) was 0.0. The “Change from Baseline in CGI Severity … (SD)” value ([1]; Bifeprunox 40 mg, Week 3) was −0.54 (1.02), the “Change … of Illness Score, Median” value ([1]; Bifeprunox 40 mg, Week 3) was 0.0 and the “Change from Baseline in CGI Severity … (SD)” value ([1]; Bifeprunox 40 mg, Week 4) was −0.51 (1.08). The “Change … of Illness Score, Median” value ([1]; Bifeprunox 40 mg, Week 4) was 0.0, the “Change from Baseline in CGI Severity … (SD)” value [1, 5] was −0.54 (1.12) and the “Change … of Illness Score, Median” value [1, 5] was 0.0. For the same molecule, the “Change from Baseline in CGI Severity of Illness Score, Trt Effect (bifeprunox—placebo)” value [1, 5] was −0.18, the “CGI severity of illness score, treatment effect (bifeprunox—placebo)” value ([1]; bifeprunox 30 mg) was −0.28 and the “mean change (SD) from Baseline to Endpoint in CGI severity of illness score” value ([1]; bifeprunox 30 mg) was −0.69 (1.19). For the same molecule, the “CGI severity of illness score, treatment effect (bifeprunox—placebo)” value ([1]; bifeprunox 40 mg) was −0.18, the “mean change (SD) from Baseline to Endpoint in CGI severity of illness score” value ([1]; bifeprunox 40 mg) was −0.54 (1.12) and the “Change from Baseline in PANSS Negative Symptom Subscale Score, Mean (SD)” value ([2]; Bifeprunox 20 mg, Week 1) was −1.5 (3.0). The “Change from Baseline in PANSS Negative Symptom Subscale Score, Median” value ([2]; Bifeprunox 20 mg, Week 1) was −1, the “Change from Baseline in PANSS Negative Symptom Subscale Score, Mean (SD)” value ([2]; Bifeprunox 20 mg, Week 2) was −2.7 (3.6) and the “Change from Baseline in PANSS Negative Symptom Subscale Score, Median” value ([2]; Bifeprunox 20 mg, Week 2) was −3. For the same molecule, the “Change from Baseline in PANSS Negative Symptom Subscale Score, Mean (SD)” value ([2]; Bifeprunox 20 mg, Week 3) was −3.2 (4.4), the “Change from Baseline in PANSS Negative Symptom Subscale Score, Median” value ([2]; Bifeprunox 20 mg, Week 3) was −3 and the “Change from Baseline in PANSS Negative Symptom Subscale Score, Mean (SD)” value ([2]; Bifeprunox 20 mg, Week 4) was −3.3 (4.8). For the same molecule, the “Change from Baseline in PANSS Negative Symptom Subscale Score, Median” value ([2]; Bifeprunox 20 mg, Week 4) was −3, the “Change from Baseline in PANSS Negative Symptom Subscale Score, Mean (SD)” value [2, 6] was −3.3 (5.0) and the “Change from Baseline in PANSS Negative Symptom Subscale Score, Median” value [2, 6] was −3. For the same molecule, the “Trt Effect (bifeprunox - placebo), PANSS Negative Symptom Subscale Score” value [2, 6] was −0.9, the “Change from Baseline in PANSS Negative Symptom Subscale Score, Mean (SD)” value ([2]; Bifeprunox 30 mg, Week 1) was −1.3 (4.0) and the “Change from Baseline in PANSS Negative Symptom Subscale Score, Median” value ([2]; Bifeprunox 30 mg, Week 1) was −1. The “Change from Baseline in PANSS Negative Symptom Subscale Score, Mean (SD)” value ([2]; Bifeprunox 30 mg, Week 2) was −1.9 (4.3), the “Change from Baseline in PANSS Negative Symptom Subscale Score, Median” value ([2]; Bifeprunox 30 mg, Week 2) was −1 and the “Change from Baseline in PANSS Negative Symptom Subscale Score, Mean (SD)” value ([2]; Bifeprunox 30 mg, Week 3) was −2.5 (4.8). The “Change from Baseline in PANSS Negative Symptom Subscale Score, Median” value ([2]; Bifeprunox 30 mg, Week 3) was −2, the “Change from Baseline in PANSS Negative Symptom Subscale Score, Mean (SD)” value ([2]; Bifeprunox 30 mg, Week 4) was −2.6 (5.0) and the “Change from Baseline in PANSS Negative Symptom Subscale Score, Median” value ([2]; Bifeprunox 30 mg, Week 4) was −2. For the same molecule, the “Change from Baseline in PANSS Negative Symptom Subscale Score, Mean (SD)” value [2, 4] was −3.1 (5.2), the “Change from Baseline in PANSS Negative Symptom Subscale Score, Median” value [2, 4] was −2 and the “Trt Effect (bifeprunox - placebo), PANSS Negative Symptom Subscale Score” value [2, 4] was −0.6. For the same molecule, the “PANSS Negative Symptom subscale score, treatment effect (bifeprunox—placebo)” value ([2]; bifeprunox 20 mg) was −0.9, the “mean change (SD) from Baseline to Endpoint in PANSS Negative Symptom subscale score” value ([2]; bifeprunox 20 mg) was −3.3 (5.0) and the “PANSS Negative Symptom subscale score, treatment effect (bifeprunox—placebo)” value ([2]; bifeprunox 30 mg) was −0.6. The “mean change (SD) from Baseline to Endpoint in PANSS Negative Symptom subscale score” value ([2]; bifeprunox 30 mg) was −3.1 (5.2), the “Change from Baseline in BPRS Total Score, Mean (S.D.)” value (from here on “Change from Baseline … (S.D.)”) ([3]; Endpoint LOCF) was −6.2 (10.5) and the “Change from Baseline in BPRS Total Score, Median” value ([3]; Endpoint LOCF) was −5. The “Change from Baseline in BPRS Total Score, Trt Effect (bifeprunox—placebo)” value ([3]; Endpoint LOCF) was −2.4, the “Change from Baseline … (S.D.)” value ([3]; Week 1, LOCF) was −2.4 (7.5) and the “Change from Baseline in BPRS Total Score, Median” value ([3]; Week 1, LOCF) was −3. For the same molecule, the “Change from Baseline … (S.D.)” value ([3]; Week 2, LOCF) was −4.2 (8.6) and the “Change from Baseline in BPRS Total Score, Median” value ([3]; Week 2, LOCF) was −4.
